Values of other authors in patent publication US20060046961A1, “Controlled and directed local delivery of anti-inflammatory compositions” (priority 2004, published 2006).

System: PGE2 production
Conditions: cell culture

COc1ccc2cc(CC(=O)O)ccc2c1 [6-methoxy-2-napthylacetic acid]
PGE2 production: suppress | local inflammation: suppress
